tested on: P. falciparum 3D7 growth, pLDH absorbance; assay: P. falciparum 3D7 growth inhibition, dose response, strain 3D7 (AID 2305)

Cn1nc(C(F)(F)F)c(-c2ccc(Br)cc2)c1NC(=O)Nc1ccc(F)cc1F and O=C(Nc1cccc(C(F)(F)F)c1)Nc1nc2ccc([N+](=O)[O-])cc2s1 are within 1.5-fold of each other in IC50: 790 nM for the first, 690 nM for the second.

CCOc1ccc(Br)cc1/C=C/C(=O)Nc1ccc2c(c1)[C@@H]1CC[C@H]2N1C and CN1CCC(NC(=O)c2cccc(Nc3cc(Nc4cccc(Br)c4)ncn3)c2)CC1 are within 1.5-fold of each other in IC50: 1050 nM for the first, 1010 nM for the second.

First: O=C(/C=C/c1ccc(Cl)c(Cl)c1)NCCCCCN1CCC(NC(=O)Nc2cccc(Cl)c2)CC1
Second: O=C(/C=C/c1ccc(Cl)c(Cl)c1)NCCCCCN1CCC(NC(=O)Nc2cccc(Cl)c2F)CC1
The IC50 of the first is 2-fold higher: 750 nM for the first, 380 nM for the second. The second is the more potent here.

Compared with COc1ccc2nc3cc(Cl)ccc3c(Nc3ccc(Oc4ccc(Nc5c6ccc(Cl)cc6nc6ccc(OC)cc56)cc4)cc3)c2c1, COc1cc2nc(Nc3ccc4c(cnn4Cc4ccccc4)c3)nc(Nc3ccc4c(cnn4Cc4ccccc4)c3)c2cc1OC is 4.5-fold lower in IC50: 860 nM for the first, 190 nM for the second. The second is the more potent here.

O=C(Nc1cccc(CN2CCCN(Cc3ccc4c(c3)OCO4)CC2)c1)c1ccc(-c2ccccc2)cc1 and O=C(Nc1cccc(CN2CCCN(Cc3cccnc3)CC2)c1)c1ccc(Cl)c(Cl)c1 are within 1.5-fold of each other in IC50: 650 nM for the first, 930 nM for the second.

COc1ccc2cc(-c3nc(-c4c(Cl)cccc4Cl)[nH]c3-c3ccnc(NCCC4CCCN4C)c3)ccc2c1 (stereo not drawn) and COc1cc(-c2nc(-c3ccc4c(c3)CCC4=NO)c(-c3ccncc3)[nH]2)ccc1OCCN1CCCCC1 are within 1.5-fold of each other in IC50: 1030 nM for the first, 790 nM for the second.

First: O=C(Nc1cccc(F)c1)N1CCC(NS(=O)(=O)c2ccc(Br)cc2)CC1
Second: O=C(CNc1ccc(Cl)c(S(=O)(=O)N2CCCC2)c1)Nc1ccc(Br)cc1F
The IC50 of the first is 3.1-fold higher: 980 nM for the first, 320 nM for the second.

Compared with Cc1cc(NCCc2ccccc2)nc(NC(=NCC(=O)OC(C)(C)C)Nc2ccc(C(F)(F)F)cc2)n1, CCCC(C)Nc1nc(C)cc(NCCC(=O)Nc2ccccc2)n1 (stereo not drawn) is 2.9-fold higher in IC50: 330 nM for the first, 960 nM for the second.

O=C(NCc1ccccn1)C(c1cc2ccccc2o1)N1CCN(C(c2ccccc2)c2ccccc2)CC1 (stereo not drawn) and O=C(NCc1cccs1)[C@H](Cc1ccccc1)Nc1ccnc(NCCc2ccccc2)n1 are within 1.5-fold of each other in IC50: 860 nM for the first, 1050 nM for the second.

CCNc1cc(C)nc(Nc2ccc(NC(=O)c3cccs3)cc2)n1 and COc1ccccc1N(C)CCNc1cc(C)nc(Nc2ccccc2)n1 are within 1.5-fold of each other in IC50: 1020 nM for the first, 1070 nM for the second.

Compared with c1ccc(Oc2ccc(Nc3ccnc4ccc(-c5ccco5)cc34)cc2)cc1, CN1CCN(Cc2cccc(-c3ccc4c(Nc5ccc(Oc6cccnc6)cc5)ccnc4c3)c2)CC1 is 4.9-fold lower in IC50: 930 nM for the first, 190 nM for the second. The second is the more potent here.

CCCCCN1CCCN(Cc2cccc(NC(=O)c3ccc(Cl)c(Cl)c3)c2)CC1 and CC(C)[C@H](NC(=O)c1ccc(O)c(-c2ccc(Cl)c(Cl)c2)c1)C(=O)NCCN1CCCC1 are the same in IC50: 930 nM for the first, 930 nM for the second.

Going from CN(C)c1c(CNCCCCCCNCc2ccc3ccccc3c2N(C)C)ccc2ccccc12 to CCCCN(CCCC)CCCCNc1c2ccccc2nc2ccccc12, the IC50 falls from 460 nM to 150 nM (3.1-fold).

COC(=O)C(NC(=O)c1ccc(-c2ccc(-c3nc4ccccc4[nH]3)s2)cc1)c1ccc(O)cc1 (stereo not drawn) and NC(=O)c1ccccc1OCC(=O)Nc1cccc(-c2ccc(-c3nc4ccccc4[nH]3)cc2)c1 are within 1.5-fold of each other in IC50: 740 nM for the first, 790 nM for the second.

First: Fc1ccc(-c2cc(NCCCn3ccnc3)nc(-c3cccnc3)n2)cc1
Second: O=c1c(NCCCN(Cc2ccc(F)cc2)c2ccccn2)c(NCc2cccnc2)c1=O
The IC50 of the first is 16-fold higher: 970 nM for the first, 60 nM for the second.

CN(C)CCCOc1ccc(CN2CCC(c3c[nH]c4ccc(NCC5CCCCC5)cc34)CC2)cc1 and FC(F)(F)c1ccc(NC(=S)N2CCC(CCN3CCC(c4c[nH]c5ccccc45)CC3)CC2)cc1 are within 1.5-fold of each other in IC50: 680 nM for the first, 890 nM for the second.

Compared with O=C(/C=C/c1ccc(Cl)c(Cl)c1)N1CCCC(CCCN2CCC(c3c[nH]c4ccccc34)CC2)C1 (stereo not drawn), O=C(/C=C/c1ccc(C(F)(F)F)cc1)N1CCC(CCN2CCC(c3c[nH]c4ccccc34)CC2)CC1 is 1.5-fold lower in IC50: 1090 nM for the first, 720 nM for the second. The second is the more potent here.

First: COc1cc(Nc2ccnc3ccc(C(C)(C)C)cc23)cc(OC)c1OC
Second: COc1ccc2c(NN=Cc3cccc(F)c3)ccnc2c1
The IC50 of the first is 2.9-fold higher: 610 nM for the first, 210 nM for the second.

COc1ccc2nc(-c3ccc(C(=O)NCCCN4CCN(c5cc(Cl)ccc5OC)CC4)cc3OC)[nH]c2c1 and COc1ccc2nc3ccccc3c(NCCN3CCN(C)CC3)c2c1 are within 1.5-fold of each other in IC50: 870 nM for the first, 1290 nM for the second.

CC(C)(C)c1cc(N=NC(=O)c2ccncc2)cc(C(C)(C)C)c1O and CC(C)(C)C1CCc2onc(C(=O)Nc3cc(Cl)ccc3O)c2C1 (stereo not drawn) are within 1.5-fold of each other in IC50: 700 nM for the first, 780 nM for the second.

O=C(Nc1cccc(N2CCC(NCc3cccnc3)CC2)c1)c1cccc(C(F)(F)F)c1 and NCc1cccc(-c2cccc(CNC3CCN(Cc4ccccc4)CC3)c2)c1 are within 1.5-fold of each other in IC50: 970 nM for the first, 720 nM for the second.

CCC(=O)N1CCc2cc(Br)cc(S(=O)(=O)N3CC(C)CC(C)C3)c21 (stereo not drawn) and Cc1ccc(O)c(-c2cc(C(=O)Nc3ccc(S(=O)(=O)N4CCCC(C)C4)cc3)[nH]n2)c1 (stereo not drawn) are within 1.5-fold of each other in IC50: 930 nM for the first, 710 nM for the second.

CCCCOc1ccc(C(O)C(CN2CCCCC2)c2ccccc2)cc1 (stereo not drawn) and O=S(=O)(NCCN1CCCC1)c1cccc(-c2ccc(CNCc3ccccc3)cc2)c1 are within 1.5-fold of each other in IC50: 890 nM for the first, 1000 nM for the second.

Cc1cc(C(=O)CN2C(=O)NC(C)(c3cccc4ccccc34)C2=O)c(C)n1Cc1ccco1 (stereo not drawn) and O=C(CCn1c2ccccc2c2ccccc21)NN=Cc1ccco1 are within 1.5-fold of each other in IC50: 630 nM for the first, 590 nM for the second.

COc1cccc(C(=O)NC(C=Cc2ccccc2)c2cc(Cl)c3cccnc3c2O)c1 (stereo not drawn) and COc1ccc2c(NN=Cc3cccc(C)n3)cc(-c3ccccc3)nc2c1 are within 1.5-fold of each other in IC50: 860 nM for the first, 750 nM for the second.

Compared with CCOc1ccc(-c2nonc2NC(=O)c2ccc(OC(C)C)cc2)cc1OCC, COc1ccc(-c2cccc(NC(=O)c3ccc(C#N)cc3)c2)cc1CN1CCN(C)CC1 is 1.6-fold higher in IC50: 600 nM for the first, 990 nM for the second. The first is the more potent here.

First: O=C(c1cc(-c2cccs2)[nH]n1)N1CCN(S(=O)(=O)c2ccc(Cl)cc2)CC1
Second: O=C(NC1CCN(c2ccnc3cc(Cl)ccc23)C1)c1cccc(F)c1 (stereo not drawn)
The IC50 of the first is 1.6-fold higher: 290 nM for the first, 180 nM for the second. The second is the more potent here.

Cc1nc(-c2ccc3c(c2)CCN(CCC2CCC(NC(=O)c4cc5cccc(Cl)c5[nH]4)CC2)CC3)no1 (stereo not drawn) and N#Cc1ccc(C=CC(=O)NC2CCC(CCN3CCc4ccc(-c5cnccn5)cc4CC3)CC2)cc1 (stereo not drawn) are within 1.5-fold of each other in IC50: 630 nM for the first, 610 nM for the second.

Going from CC(C)(C(=O)Nc1ccc(N2CCC3(CCCN(CC4CC4)C3)CC2)c(Cl)c1)c1cccc(C(F)(F)F)c1 to O=C(NC(CCCN1CCC(c2ccccc2)CC1)c1ccc(Cl)c(Cl)c1)c1cc(C(F)(F)F)cc(C(F)(F)F)c1 (stereo not drawn), the IC50 falls from 2000 nM to 860 nM (2.3-fold).

O=C(NC1CC1)c1ccc(N2CCC(Oc3ccc(F)cc3)CC2)nc1 and COc1ccc2nccc(NC(=O)OC3CCC(NCc4ccc5c(n4)NC(=O)CS5)CC3)c2c1 (stereo not drawn) are within 1.5-fold of each other in IC50: 1090 nM for the first, 920 nM for the second.

NCC1CCCN1Cc1cccc(-c2ccc(-c3nc4ccc(C(F)(F)F)cc4[nH]3)s2)c1 (stereo not drawn) and Cc1nc(-c2cccc(C(F)(F)F)c2)n2nc(Nc3ccc(OCCN4CCCC4)cc3)ncc12 are the same in IC50: 750 nM for the first, 750 nM for the second.

Going from NCCc1cccc(-c2cnc3[nH]cc(-c4ccc(C(=O)O)cc4)c3c2)c1 to CS(=O)(=O)c1ccc(-c2cncc(Nc3cccc([N+](=O)[O-])c3)c2)cc1, the IC50 rises from 400 nM to 770 nM (1.9-fold). The first is the more potent here.

Cc1cc2c(cc1C(F)(F)F)N(C(=O)Nc1cc(OCCN(C)C)cc(C(F)(F)F)c1)CC2 and CCOc1cc(C(=O)N[C@@H](Cc2ccccc2)[C@H](O)CNCc2cc(OC)cc(OC)c2)cc(N2CCCC2=O)c1 are within 1.5-fold of each other in IC50: 710 nM for the first, 850 nM for the second.

O=S(=O)(/C=C/c1ccccc1)N(Cc1ccc(-c2ccc(CNCCc3ccccn3)cc2)cc1)CC1CCCCN1 (stereo not drawn) and c1cncc(CCNCc2ccc(-c3ccc(CNC4Cc5ccccc5C4)cc3)cc2)c1 are within 1.5-fold of each other in IC50: 740 nM for the first, 1090 nM for the second.

Cn1nc(-c2cccc(CNC3CCc4ccccc43)c2)c2cnc(NCCCN3CCCC3)nc21 (stereo not drawn) and CN1CCC(C(=O)N(Cc2ccc(-c3ccc(CNCCc4ccccc4)cn3)cc2)Cc2cccc(F)c2)CC1 are within 1.5-fold of each other in IC50: 880 nM for the first, 940 nM for the second.

N#Cc1ccc(N(CC(=O)NCCc2ccc(F)cc2)CC2CC2)c2ccccc12 and Cc1ccc(O)c(CN2CCCC(COC(c3ccc(F)cc3)c3ccc(F)cc3)C2)c1 (stereo not drawn) are within 1.5-fold of each other in IC50: 930 nM for the first, 710 nM for the second.

CC(=O)c1ccc(O)c(CC(O)CO)c1 (stereo not drawn) and CC(OC(=O)c1ccc(C(=O)NCC2CC2)cc1)C(C)(C)C (stereo not drawn) are within 1.5-fold of each other in IC50: 720 nM for the first, 790 nM for the second.

First: N=C1c2ccccc2CN1CC(=O)c1ccc(Cl)c(Cl)c1
Second: Nc1nc(N)c2cc(NC(=O)c3ccc(Cl)c(Cl)c3)ccc2n1
The IC50 of the first is 4.9-fold higher: 730 nM for the first, 150 nM for the second. The second is the more potent here.

Cc1nnc2c(N(C(=O)NCCc3ccccc3)C(=O)NCCc3ccccc3)cc3cc(Cl)ccc3n12 and C=CC[C@H](C[C@H](O)[C@H](Cc1ccccc1)NC(=O)c1nn(-c2ccccc2)nc1C)C(=O)NC1CCCCC1 are within 1.5-fold of each other in IC50: 950 nM for the first, 920 nM for the second.

Compared with COc1ccc(NC(=O)C2c3ccccc3C(=O)N(CC(C)C)C2c2cccs2)cc1OC (stereo not drawn), COc1ccc(CCn2c(C3CCCCC3)nc3oc4ccccc4c(=O)c3c2=O)cc1 is 4.8-fold higher in IC50: 200 nM for the first, 950 nM for the second. The first is the more potent here.

Going from CCOC(=O)c1[nH]c(-c2ccccc2)nc1NC(=S)NC1CCCCC1 to N#CN1CC[C@@H](OC(=O)N[C@@H]2C[C@H]2c2ccccc2)C1, the IC50 rises from 840 nM to 1340 nM (1.6-fold).

Going from Nc1[nH]c2ccccc2c(=O)c1-c1nc2ccccc2s1 to Cc1[nH]c(C)c(-c2ccc(CCc3ccc(C(F)(F)F)cc3)nc2)c(=O)c1Cl, the IC50 falls from 300 nM to 90 nM (3.3-fold).

Going from CCCCCCCCCN(CCC)C(=O)[C@@H]1OC(C(=O)OC(c2ccccc2)c2ccccc2)=C[C@H](NC(=O)OC(C)(C)C)[C@H]1NC(C)=O to CCCCCCCc1cc(O)c2c(c1)OC(C)(C)c1ccncc1-2, the IC50 rises from 640 nM to 1150 nM (1.8-fold).

O=C(/C=C/c1ccc(Cl)c(Cl)c1)NCCCCCN1CCC(NC(=O)Nc2ccc([N+](=O)[O-])cc2)CC1 and O=C(Cc1ccc(NC(=O)c2ccc(O)c(-c3ccc(Cl)c(Cl)c3)c2)cc1)NCCN1CCOCC1 are within 1.5-fold of each other in IC50: 690 nM for the first, 810 nM for the second.

First: c1cnc2ccc(NCc3ccc(-c4ccc(CNC5CCCC5)cc4)cc3)cc2c1
Second: Cc1cccc2[nH]c(-c3ccc(-c4ccc(CNCc5cnn(-c6ccccc6)n5)cc4)cc3)nc12
The IC50 of the first is 2-fold higher: 870 nM for the first, 430 nM for the second. The second is the more potent here.

COc1ccc2c(c1CNCCCCCCNCc1c(OC)ccc3c1CCCC3)CCCC2 and CNC(=O)c1c(NC(=O)c2cccs2)sc2c1CCCC2 are within 1.5-fold of each other in IC50: 910 nM for the first, 820 nM for the second.

Compared with FC(F)(F)c1cnc(Sc2nnc(-c3ccncc3)o2)c(Cl)c1, CC(=O)Oc1cc(C)ccc1C1CCN(CCCCNC(=O)c2ccc(-c3ccc(C(F)(F)F)cc3)cc2)CC1 is 2.4-fold higher in IC50: 270 nM for the first, 650 nM for the second.

CN1CCCN(c2ccnc3cc4c(cc23)N(C(=O)c2ccc(Cl)c(Cl)c2)CC4)CC1 and CN(CC1CCC(NC(=O)/C=C/c2ccc(Cl)c(Cl)c2)CC1)C1CCC(c2c[nH]c3ccccc23)CC1 (stereo not drawn) are within 1.5-fold of each other in IC50: 870 nM for the first, 840 nM for the second.

COc1cc(N)c(Cl)cc1C(=O)NCC1CCN(c2nc(C)cc(C)n2)CC1 and Cc1sc2ncnc(Sc3nnc(N)s3)c2c1C are within 1.5-fold of each other in IC50: 510 nM for the first, 400 nM for the second.

Source: PubChem BioAssay AID2305 (GlaxoSmithKline (GSK), 2010)
